The subject of the assay is Clostridium perfringens. The experiment in a line: Antimicrobial activity against Clostridium perfringens assessed as resistant isolates by agar dilution method. It counts as functional. (In general: In agar dilution, organisms are placed on agar that contains the substance at set levels.)
With `CO[C@@]1(NC(=O)Cc2cccs2)C(=O)N2C(C(=O)O)=C(COC(N)=O)CS[C@@H]21` [CEFOXITIN], the Activity was determined as 0%.

Take `CCN1CCN(C(=O)N[C@@H](C(=O)N[C@@H]2C(=O)N3[C@@H]2SC(C)(C)[C@@H]3C(=O)O)c2ccccc2)C(=O)C1=O` [PIPERACILLIN]: the Activity was found to be 0%.

On to `CC(=O)NC[C@H]1CN(c2ccc(N3CCOCC3)c(F)c2)C(=O)O1` [LINEZOLID], for which the Activity was 0%.

On to `CN[C@H](CC(C)C)C(=O)N[C@H]1C(=O)N[C@@H](CC(N)=O)C(=O)N[C@H]2C(=O)N[C@H]3C(=O)N[C@H](C(=O)N[C@H](C(=O)O)c4cc(O)cc(O)c4-c4cc3ccc4O)[C@H](O)c3ccc(c(Cl)c3)Oc3cc2cc(c3O[C@@H]2O[C@H](CO)[C@@H](O)[C@H](O)[C@H]2O[C@H]2C[C@](C)(N)[C@H](O)[C@H](C)O2)Oc2ccc(cc2Cl)[C@H]1O` [VANCOMYCIN], for which the Activity came out at 0%.

Turning to `C[C@@H](O)[C@H]1C(=O)N2C(C(=O)O)=C(S[C@@H]3CN[C@H](C(=O)N(C)C)C3)[C@H](C)[C@H]12` [MEROPENEM], the Activity was 0%.

As for `C[C@@H](O)[C@H]1C(=O)N2C(C(=O)O)=C(S[C@@H]3CN[C@H](C(=O)Nc4cccc(C(=O)O)c4)C3)[C@H](C)[C@H]12`, the Activity was determined as 0%.

Take `C[C@@H](O)[C@H]1C(=O)N2C(C(=O)O)=C(S[C@@H]3CN[C@H](CNS(N)(=O)=O)C3)[C@H](C)[C@H]12` [DORIPENEM]: the Activity amounted to 0%.

As to `Cc1ncc([N+](=O)[O-])n1CCO` [METRONIDAZOLE], the Activity is listed as 7.8%.

`CC1(C)S[C@@H]2[C@H](NC(=O)[C@H](N)c3ccccc3)C(=O)N2[C@H]1C(=O)O` [AMPICILLIN]: the Activity was found to be 0%.

Take `CCC[C@@H]1C[C@@H](C(=O)N[C@@H]([C@H]2O[C@H](SC)[C@H](O)[C@@H](O)[C@H]2O)[C@H](C)Cl)N(C)C1` [CLINDAMYCIN]: the Activity worked out at 0%.

Regarding `C[C@@H](O)[C@H]1C(=O)N2C(C(=O)O)=C(SCCNC=N)C[C@H]12` [IMIPENEM ANHYDROUS], the Activity was 0%.
